≈ marks a conversion by molar mass, not a printed value.
Key:
Assay in all cases: ≥ marks a high value that may be exact or a test limit, other limits are often not marked, values filed in µg/mL are converted to µM
[1] = system: Candida albicans ATCC 2002
[2] = system: Escherichia coli ATCC 25922
[3] = system: Pseudomonas aeruginosa CMCCB 10104
[4] = system: Staphylococcus aureus ATCC 25923
[5] = system: Enterococcus faecalis ATCC 29212
Escherichia coli UB1005 = system: Escherichia coli UB1005
[6] = system: Pseudomonas aeruginosa ATCC 27853
[7] = system: Salmonella enterica subsp. enterica serovar Pullorum C79-13
[8] = system: Salmonella enterica subsp. enterica serovar Typhimurium ATCC 14028
[9] = system: Salmonella enterica subsp. enterica serovar Typhimurium C77-31
[10] = system: Staphylococcus epidermidis ATCC 12228
Bacillus cereus = system: Bacillus cereus
Escherichia coli = system: Escherichia coli
Staphylococcus aureus = system: Staphylococcus aureus
Bacillus subtilis 168 = system: Bacillus subtilis 168
[11] = system: Escherichia coli NCTC 10418
[12] = system: Staphylococcus aureus NCTC 10788
[13] = system: Staphylococcus aureus ATCC 29213

## CC[C@H](C)[C@H](NC(=O)[C@H](Cc1ccccc1)NC(=O)[C@H](CCCN=C(N)N)NC(=O)[C@@H](NC(=O)[C@@H]1CCCN1C(=O)[C@H](CO)NC(=O)[C@H](CC(C)C)NC(=O)[C@H](C)NC(=O)[C@H](C)NC(=O)[C@H](CCCCN)NC(=O)[C@H](CC(N)=O)NC(=O)[C@H](CCSC)NC(=O)CNC(=O)[C@@H](NC(=O)[C@H](CCC(N)=O)NC(=O)[C@H](CC(=O)O)NC(=O)[C@H](C)NC(=O)[C@@H](N)CO)[C@@H](C)O)[C@@H](C)CC)C(=O)N[C@@H](CO)C(=O)N[C@@H](CCCCN)C(=O)N[C@@H](CO)C(=O)N[C@H](C(=O)O)C(C)C [SADQTGMNKAALSPIRFISKSV]
[1]
  MIC: ≥ 86.1 µM
[2]
  MIC: > 86.1 µM
[3]
  MIC: ≥ 86.1 µM
[4]
  MIC: > 86.1 µM

## CC[C@H](C)[C@H](NC(=O)[C@H](CCCCN)NC(=O)[C@H](CCCCN)NC(=O)[C@H](Cc1ccccc1)NC(=O)[C@H](CC(C)C)NC(=O)[C@H](CCCCN)NC(=O)[C@H](Cc1c[nH]c2ccccc12)NC(=O)[C@@H](N)CCCCN)C(=O)N[C@@H](Cc1c[nH]c2ccccc12)C(=O)N[C@@H](Cc1c[nH]c2ccccc12)C(=O)N1CCC[C@H]1C(=O)N[C@@H](Cc1ccccc1)C(=O)N[C@@H](CC(C)C)C(=O)N[C@@H](CCCN=C(N)N)C(=O)N[C@@H](CCCN=C(N)N)C(N)=O [KWKLFKKIWWPFLRR]
[5]
  MIC: 2 µM (≈ 4.26 µg/mL)
Escherichia coli UB1005
  MIC: 4 µM (≈ 8.53 µg/mL)
[6]
  MIC: 4 µM (≈ 8.53 µg/mL)
[7]
  MIC: 4 µM (≈ 8.53 µg/mL)
[8]
  MIC: 4 µM (≈ 8.53 µg/mL)
[9]
  MIC: 2 µM (≈ 4.26 µg/mL)
[10]
  MIC: 2 µM (≈ 4.26 µg/mL)

## CC(C)C[C@H](NC(=O)[C@H](CCCCN)NC(=O)[C@H](Cc1ccccc1)NC(=O)[C@@H](NC(=O)[C@@H](NC(=O)CNC(=O)[C@H](CC(C)C)NC(=O)[C@@H](N)Cc1ccccc1)C(C)C)C(C)C)C(=O)N[C@@H](C)C(=O)N[C@@H](CO)C(=O)N[C@@H](CCCCN)C(=O)N[C@H](C(=O)N[C@@H](Cc1ccccc1)C(=O)NCC(=O)N[C@@H](C)C(=O)N[C@H](C(=O)N[C@@H](Cc1ccccc1)C(=O)N[C@@H](CCCCN)C(=O)N[C@@H](CCCCN)C(=O)N[C@H](C(=O)O)C(C)C)C(C)C)C(C)C [FLGVVFKLASKVFGAVFKKV]
Bacillus cereus
  MIC: 3.66 µM (≈ 8 µg/mL)
Escherichia coli
  MIC: 117 µM (≈ 256 µg/mL)
Staphylococcus aureus
  MIC: 3.66 µM (≈ 8 µg/mL)

## CC[C@H](C)[C@@H]1NC(=O)[C@H](CCCCN)NC(=O)[C@@H](NC(=O)[C@H](CCCCN)NC(=O)[C@H](CC(C)C)NC(=O)[C@H](CC(N)=O)NC(=O)[C@H](CC(=O)O)NC(=O)[C@H](CC(C)C)NC(=O)[C@H](CC(C)C)NC(=O)[C@H](CC(N)=O)NC(=O)CNC(=O)[C@H](C)NC(=O)[C@H](CCC(=O)O)NC(=O)[C@H](CC(N)=O)NC(=O)[C@H](CCCCN)NC(=O)[C@H](C)NC(=O)[C@@H](NC(=O)[C@H](CC(N)=O)NC(=O)[C@H](CCCCN)NC(=O)[C@H](C)NC(=O)[C@@H](NC(=O)[C@H](CC(=O)O)NC(=O)[C@H](CCSC)NC(=O)[C@H](Cc2ccccc2)NC(=O)CN)[C@@H](C)O)C(C)C)CSSC[C@@H](C(=O)O)NC(=O)[C@H](C)NC(=O)[C@H](CCCCN)NC(=O)[C@H]([C@@H](C)O)NC1=O [GFMDTAKNVAKNEAGNLLDNLKCKITKAC]
[1]
  MIC: 2.02 µM (≈ 6.3 µg/mL)
[2]
  MIC: 4.05 µM (≈ 12.6 µg/mL)
[3]
  MIC: 4.05 µM (≈ 12.6 µg/mL)
[4]
  MIC: 2.02 µM (≈ 6.3 µg/mL)

## CC(C)C[C@H](NC(=O)[C@@H](N)Cc1ccccc1)C(=O)NCC(=O)N[C@H](C(=O)N[C@H](C(=O)N[C@@H](Cc1ccccc1)C(=O)N[C@@H](CCCCN)C(=O)N[C@@H](CCCCN)C(=O)N[C@@H](C)C(=O)N[C@@H](CO)C(=O)N[C@@H](CCCCN)C(=O)N[C@H](C(=O)N[C@@H](Cc1ccccc1)C(=O)N[C@@H](CCCCN)C(=O)N[C@@H](C)C(=O)N[C@H](C(=O)N[C@@H](Cc1ccccc1)C(=O)NCC(=O)N[C@@H](CCCCN)C(=O)N[C@H](C(=O)O)C(C)C)C(C)C)C(C)C)C(C)C)C(C)C [FLGVVFKKASKVFKAVFGKV]
Bacillus cereus
  MIC: 14.5 µM (≈ 32 µg/mL)
Escherichia coli
  MIC: 14.5 µM (≈ 32 µg/mL)
Staphylococcus aureus
  MIC: 116 µM (≈ 256 µg/mL)

## CC[C@H](C)[C@H](NC(=O)[C@H](CS)NC(=O)[C@H](CCSC)NC(=O)[C@H](CS)NC(=O)[C@H](CCCN=C(N)N)NC(=O)[C@@H](N)CC(C)C)C(=O)N[C@@H](CCCCN)C(=O)N[C@@H](Cc1c[nH]c2ccccc12)C(=O)N[C@@H](Cc1c[nH]c2ccccc12)C(=O)N[C@@H](CO)C(=O)NCC(=O)N[C@@H](CCCCN)C(=O)N[C@@H](Cc1cnc[nH]1)C(=O)N1CCC[C@H]1C(=O)N[C@@H](CCCCN)C(=O)O [LRCMCIKWWSGKHPK]
Bacillus subtilis 168
  MIC: 7 µM (≈ 13.1 µg/mL)

## CC[C@H](C)[C@H](NC(=O)[C@H](CCCCN)NC(=O)CNC(=O)[C@@H](NC(=O)[C@H](C)NC(=O)[C@H](CO)NC(=O)[C@@H](N)CC(C)C)C(C)C)C(=O)N[C@@H](C)C(=O)N[C@@H](CO)C(=O)N[C@@H](CCCCN)C(=O)N[C@H](C(=O)N[C@H](C(=O)N1CCC[C@H]1C(=O)N[C@@H](CO)C(=O)N[C@H](C(=O)N[C@H](C(=O)NCC(=O)N[C@@H](C)C(=O)N[C@@H](Cc1ccccc1)C(=O)N[C@@H](CCCCN)C(=O)O)[C@@H](C)CC)C(C)C)C(C)C)C(C)C [LSAVGKIASKVVPSVIGAFK]
Bacillus cereus
  MIC: ≥ 130 µM
Escherichia coli
  MIC: > 130 µM

## CC[C@H](C)[C@H](NC(=O)CNC(=O)[C@@H](NC(=O)[C@H](CCCCN)NC(=O)[C@H](C)NC(=O)[C@@H](NC(=O)[C@H](C)NC(=O)[C@H](CO)NC(=O)[C@H](CO)NC(=O)[C@H](Cc1ccccc1)NC(=O)[C@H](CC(C)C)NC(=O)[C@@H](NC(=O)[C@@H]1CCCN1C(=O)[C@@H](N)CC(C)C)C(C)C)[C@@H](C)CC)C(C)C)C(=O)N[C@@H](CCCCN)C(=O)N[C@@H](CC(C)C)C(=O)NCC(=O)N[C@@H](C)C(=O)N[C@@H](CCCCN)C(=O)N[C@H](C(=O)O)C(C)C [LPVLFSSAIAKVGIKLGAKV]
Bacillus cereus
  MIC: ≥ 127 µM
Escherichia coli
  MIC: > 127 µM

## CC[C@H](C)[C@H](NC(=O)CNC(=O)[C@H](CO)NC(=O)[C@H](CC(C)C)NC(=O)[C@H](Cc1cnc[nH]1)NC(=O)[C@@H]1CCCN1C(=O)[C@H](CC(C)C)NC(=O)[C@H](CC(C)C)NC(=O)[C@H](CCC(=O)O)NC(=O)[C@H](CCCCN)NC(=O)[C@@H](NC(=O)[C@@H](N)Cc1ccccc1)[C@@H](C)CC)C(=O)N[C@H](C(=O)N[C@@H](CC(=O)O)C(=O)N[C@@H](CO)C(=O)N[C@H](C(=O)N[C@@H](C)C(=O)N[C@@H](CC(N)=O)C(=O)N[C@@H](C)C(=O)N[C@H](C(=O)N[C@@H](CCCCN)C(N)=O)[C@@H](C)CC)C(C)C)[C@@H](C)CC [FIKELLPHLSGIIDSVANAIK]
[11]
  MIC: ≥ 110 µM
[12]
  MIC: ≥ 55 µM

## CC[C@H](C)[C@H](NC(=O)[C@H](CC(C)C)NC(=O)[C@H](CO)NC(=O)[C@H](C)NC(=O)[C@@H](NC(=O)[C@H](C)NC(=O)CNC(=O)[C@H](CCCCN)NC(=O)[C@H](Cc1ccccc1)NC(=O)[C@H](CCCCN)NC(=O)[C@@H](NC(=O)[C@H](C)NC(=O)[C@@H](NC(=O)[C@@H](NC(=O)[C@@H]1CCCN1C(=O)[C@H](CO)NC(=O)[C@H](CO)NC(=O)[C@@H](NC(=O)CN)C(C)C)[C@@H](C)CC)C(C)C)C(C)C)C(C)C)C(=O)N[C@@H](CCCCN)C(=O)O [GVSSPIVAVKFKGAVASLIK]
Bacillus cereus
  MIC: ≥ 130 µM
Escherichia coli
  MIC: > 130 µM

## CC(C)C[C@H](NC(=O)[C@@H](N)Cc1ccccc1)C(=O)NCC(=O)N[C@H](C(=O)N[C@H](C(=O)N[C@@H](Cc1ccccc1)C(=O)N[C@@H](CCCCN)C(=O)N[C@@H](CCCCN)C(=O)N[C@@H](C)C(=O)N[C@@H](CO)C(=O)N[C@@H](CCCCN)C(=O)N[C@H](C(=O)N[C@@H](Cc1ccccc1)C(=O)N1CCC[C@H]1C(=O)N[C@@H](C)C(=O)N[C@H](C(=O)N[C@@H](Cc1ccccc1)C(=O)N[C@@H](CCCCN)C(=O)N[C@@H](CCCCN)C(=O)N[C@H](C(=O)O)C(C)C)C(C)C)C(C)C)C(C)C)C(C)C [FLGVVFKKASKVFPAVFKKV]
Bacillus cereus
  MIC: ≥ 114 µM
Escherichia coli
  MIC: 114 µM (≈ 256 µg/mL)
Staphylococcus aureus
  MIC: > 114 µM

## CC[C@H](C)[C@H](NC(=O)[C@@H]1CCCN1C(=O)[C@@H]1CCCN1)C(=O)N[C@H](C(=O)NCC(=O)N[C@@H](CO)C(=O)N[C@H](C(=O)N1CCC[C@H]1C(=O)N[C@@H](CC(C)C)C(=O)NCC(=O)N[C@@H](CS)C(=O)NCC(N)=O)[C@@H](C)CC)C(C)C [PPIVGSIPLGCG]
[2]
  MIC: > 128 µM
Escherichia coli UB1005
  MIC: ≥ 128 µM
[9]
  MIC: ≥ 128 µM
[4]
  MIC: > 128 µM
[13]
  MIC: > 128 µM
[10]
  MIC: > 128 µM

From DBAASP
